Test results as given in US20230106523A1, “QUERCETIN ENHANCEMENT FORMULATION” (SMARTDNA PTY LTD, priority 2020, published 2023).
Values joined by “and” are separate entries in the source; they are usually repeats but may differ in a detail not shown here. Equal entries are not always repeated.

Key:
[1] = cited from earlier work
[2] = cited from earlier work; remark: listed apart in the source
[3] = Rat study: serum quercetin concentration after oral gavage; type: in vivo, Sprague-Dawley rats; settings: for concentration of quercetin in the serum from individual rats: one column per rat
Protocol: Rats were administered: • (a) Quercetin • (b) American Ruby Red grapefruit extract • (c) Quercetin and American Ruby Red grapefruit extract • (d) grapefruit extract • (e) grapefruit extract and quercetin
5 groups of 8 male Sprague-Dawley rats, aged approximately 14 weeks, weighing 350-400 gm were used in the study. The rats were bred at Hercus-Taeri Resource Unity. All of the rats were healthy and had no medication history.
1. The quercetin was dissolved in distilled water at 12.0 mg/ml immediately prior to administration.
2. American Ruby Red grapefruit was cut in half and juice obtained by manual squeezing.
The grapefruit extract used was a commercially obtained grapefruit juice.
3. A known volume of each of the grapefruit juices was lyophilized. Once dry, the residue was resuspended in distilled water to 25% of its original volume. This reduced the volume to be gavaged to each rat in the relevant groups to make the quantities of active agents administered as high as practical.
4. The quercetin/grapefruit juice formulations were prepared by dissolving the quercetin in the concentrated juices at 12.0 mg/ml.
GROUP 1. Each animal in this group received quercetin at 15 mg per kg body weight administered by oral gavage.
GROUP 2. Each animal in this group received the concentrated New Zealand grapefruit juice (American Ruby Red) at 2.5 ml per kg body weight administered by oral gavage.
GROUP 3. Each animal in this group received quercetin dissolved in the concentrated New
Zealand grapefruit juice (American Ruby Red) administered by oral gavage. The juice was administered so as to provide 15 mg quercetin per kg body weight.
GROUP 4. Each animal in this group received the concentrated grapefruit juice (prepared by Cedenco Ltd) at 2.5 ml per kg body weight administered by oral gavage.
GROUP 5. Each animal in this group received quercetin dissolved in the concentrated grapefruit juice (prepared by Cedenco Ltd) at 2.5 ml per kg body weight administered by oral gavage. The quercetin was dissolved so that it was administered at 15 mg per kg body weight.
1. A 0.5 ml time zero blood sample was taken from each animal from the lateral saphenous vein. The animals were anaesthetized using Halothane in oxygen (3.5% for knockdown, 2.5 to 3.0% for maintenance). The vein was cannulated. The zero-time blood sample was taken from each group of rats the day before the animals were gavaged. Following the collection of the blood sample, a 0.5 ml aliquot of sterile normal saline was given by intraperitoneal (IP) injection.
2. The test sample was prepared freshly immediately prior to the gavaging of each group of rats. Each animal was weighed and the volume of the test sample to be administered calculated.
3. Each rat was gavaged using proprietary gavaging needles (Popper). Once gavaging was complete the animals were left for 10 minutes before being anaesthetized using Halothane in oxygen (3.5% for knockdown, 2.5 to 3.0% for maintenance).
4. […] After each collection an equal volume of sterile saline was administered to each animal via an IP injection. The blood samples were immediately transferred to serum separating microtainer tubes (Becton Dickinson Cat. No 365956) and left to clot for 30 minutes at room temperature. The tubes were centrifuged at 3000 rpm for 10 minutes in a Beckman J6 centrifuge with a swing-out rotor. The sera were pipetted off and transferred into Eppendorf tubes/cryovials which were stored at −80° C.
The sera samples were sent to the Institute of Environmental Science and Research (ESR) (Kenepuru, Wellington, New Zealand) for quantitation of the concentration of quercetin in each. The detection limit for quercetin in serum was 5 ng/ml.

[4] = Human trial: blood serum levels of quercetin after ingestion, HPLC-UV; type: in vivo; settings: human subject, 80 mg quercetin oral
Protocol: The concentration of quercetin in the blood of a human subject was measured over four hours following ingestion of: • (a) 80 mg quercetin and 200 ml filtered water, • (b) 80 mg quercetin and 200 ml grapefruit extract.
The grapefruit extract consisted of grapefruit juice that was squeezed from the grapefruit with a juicer. The collected juice was freeze-dried and redissolved as a concentrate (4 times) using water for solubilising.
The total amount of 6,7-DHB administered in the grapefruit extract in (b) above was estimated to be about 5.9 mg.
In both experiments, the quercetin was administered as a powder washed down with filtered water.
For the quercetin and grapefruit extract test, the grapefruit extract was taken two hours before the quercetin.
Serum samples were taken from the subject at 15 minute intervals. The samples were extracted into ethyl acetate and the concentration of quercetin determined using HPLC with UV detection at 315 nm. Carbamazepine was used as an internal standard.
A linear relationship for the standard curve was achieved over the range of quercetin standards of 2-150 ng/mL (using weighted linear retgression 1/x^2).
The lower limit of quantification (LLOQ) for the method was determined to be 2 ng/mL (using FDA guidelines for bio-analytical procedures) and the limit of detection was estimated to be 1 ng/mL.

O=c1c(O)c(-c2ccc(O)c(O)c2)oc2cc(O)cc(O)c12 [Quercetin, 2-(3,4-dihydroxyphenyl)-3,5,7-trihydroxy-4H-chromen-4-one]
water solubility [1]: low
bioavailability of active quercetin (duration) ([2]; human studies (Graefe 1999)): no more than 10 minutes
elimination half-life ([2]; humans, after ingesting quercetin foods or supplements): 1 to 2 h
bioavailability of quercetin in humans ([2]; humans): 0-50%
concentration of quercetin in the serum from individual rats ([3]; 0 min (sample taken the day before gavage)): 0
concentration of quercetin in the serum from individual rats ([3]; 30 min after oral gavage, quercetin 15 mg/kg and/or concentrated juice 2.5 ml/kg): 0
rats (of eight) showing quercetin in the serum ([3]; 30 minutes after administration): none was detected in any of the animals
concentration of quercetin in the serum from individual rats ([3]; 60 min after oral gavage, quercetin 15 mg/kg and/or concentrated juice 2.5 ml/kg, listed as Quercetin alone): 0 (7×) and 2
concentration of quercetin in the serum from individual rats ([3]; 90 min after oral gavage, quercetin 15 mg/kg and/or concentrated juice 2.5 ml/kg, listed as Quercetin alone): 0 (7×) and 2
concentration of quercetin in the serum from individual rats ([3]; 120 min after oral gavage, quercetin 15 mg/kg and/or concentrated juice 2.5 ml/kg, listed as Quercetin alone): 0 (7×) and 2
concentration at 0 min ([4]; time 0 min): 0 ng/mL
concentration at 15 min ([4]; time 15 min): 1 ng/mL
concentration at 30 min ([4]; time 30 min): 2.3 ng/mL
concentration at 45 min ([4]; time 45 min): 3.8 ng/mL
concentration at 60 min ([4]; time 60 min): 3.1 ng/mL
concentration at 75 min ([4]; time 75 min): 1 ng/mL
concentration at 90 min ([4]; time 90 min): 0 ng/mL
concentration at 105 min ([4]; time 105 min): 0 ng/mL
concentration at 120 min ([4]; time 120 min): 0 ng/mL
concentration at 135 min ([4]; time 135 min): 0 ng/mL
concentration at 150 min ([4]; time 150 min): 0 ng/mL
concentration at 165 min ([4]; time 165 min): 0 ng/mL
concentration at 180 min ([4]; time 180 min): 0 ng/mL
concentration at 195 min ([4]; time 195 min): 0 ng/mL
concentration at 210 min ([4]; time 210 min): 0 ng/mL
concentration at 225 min ([4]; time 225 min): 0 ng/mL
concentration at 240 min ([4]; time 240 min): 0 ng/mL
